In patent publication US9040488B2, “Imino sugar derivatives demonstrate potent antiviral activity and reduced toxicity” (Baruch S. Blumberg Institute, priority 2008, dated 2015):
Like-named read-outs stand apart in the source and are kept apart here.

Key:
MDBK cells = assay: Cytotoxicity (MTT) in MDBK cells; format: cell-based
Method: (§1) Compound toxicity assay. Compound cytotoxicity was assessed by using an MTT based toxicity assay kit (Sigma, St. Louis, Mo.) as described elsewhere. Briefly, cells cultured under conditions identical to those used in the viral assay were incubated with various concentrations of the compound for 72 hours. MTT was added to the media to a final concentration of 0.5 mg/ml and was incubated for 3 hours at 37 C. After the culture media was removed, formazan crystals was dissolved by adding 150 ul of solubilization solution (10% Triton X-100, 0.1N HCl in anhydrous isopropanol) for 15-30 minutes. The absorbance of the dissolved formazan was measured spectrophotometrically at 570 nm with absorbance at 690 nm as background.

BVDV (NADL strain) [1] = format: cell-based, Bovine viral diarrhea virus
BHK cells = assay: Cytotoxicity (MTT) in BHK cells; format: cell-based
Method: as §1

[2] = Cytotoxicity (CC50) in the HCV infection test; format: cell-based; conditions: Table 3, HCV infection test
Ebola (Zaire strain) = format: cell-based, Ebola virus
[3] = system: Junin virus (JUNV, Romero strain); format: cell-based
HCV = HCV infection, intracellular HCV RNA level by real-time RT-PCR; format: cell-based, hepatitis C virus; conditions: for EC50: read-out: EC50 against HCV infection; for EC90: read-out: EC90 against HCV infection
Source text: Another embodiment of the present invention is the use of imino sugar glucosidase inhibitors in the treatment of HCV. Imino sugar glucosidase inhibitors show equal or better efficacy than celgosivir.

[4] = system: Tacaribe virus (21573 strain); format: cell-based
[5] = in vivo, po, 100 mg/kg
[6] = system: Dengue virus (DV) serotype 2, New Guinea C; assay: microbe, parasite or virus in culture; format: cell-based
[7] = Cytotoxicity (MTT) in BHK cells; format: cell-based; conditions: hamster; BHK cells (for Dengue and West Nile virus), 3 days treatment
Method: as §1

[8] = system: West Nile virus (2002 Texas isolate); assay: microbe, parasite or virus in culture; format: cell-based
BVDV (NADL strain) [9] = conditions: tissue culture, test viruses such as BVDV and DV; cited from earlier work
[10] = BHK cells (for Dengue and West Nile virus), 3 days treatment, read-out: CC50
[11] = Table 5, read-out: CC50 in BHK cells

Structure (SMILES)	CC50 (MDBK cells)	EC50 (BVDV (NADL strain) [1])	EC90 (BVDV (NADL strain) [1])	CC50 (BHK cells; [10])	CC50 (BHK cells; [11])	CC50 [2]	EC50 (Ebola (Zaire strain))	EC90 (Ebola (Zaire strain))	EC50 [3]	EC90 [3]	EC50 (HCV)	EC90 (HCV)	EC50 [4]	EC90 [4]	EC50 ([6]; read-out: DV EC50)	EC90 ([6]; read-out: DV EC90)	EC50 ([6]; read-out: Dengue EC50)	EC90 ([6]; read-out: Dengue EC90)	CC50 (vero cells)	EC50 ([8]; read-out: West Nile EC50)	further results
CC(=O)O.OC[C@@H]1[C@@H](O)[C@H](O)[C@@H](O)CN1CCCCCCC1(O)CCCCC1 [CM-9-70]	> 500 µM	18 µM	82.5 µM																		anti-BVDV activity (BVDV (NADL strain) [1]): retains similar antiviral activity
CC(=O)O.CC1CCC(OCCCCCCN2C[C@H](O)[C@@H](O)[C@H](O)[C@H]2CO)CC1 (stereo partly shown) [CM-9-78]	> 500 µM	8.1 ± 3.4 µM	59 ± 22 µM	> 100 µM	> 40 µM	> 500 µM	7.5 µM	> 100 µM	2 µM	> 100 µM	5 µM	160 µM	10 µM	> 100 µM	6.75 µM	13 µM	6.8 µM	13 µM	> 500 µM		plasma concentration [5]: above 30 μM
O[C@H]1[C@H](O)[C@@H](O)CN2CC[C@H](O)[C@H]12 [Castano., Castanospermin]						> 500 µM					295 µM	> 500 µM									
CCCC(=O)O[C@H]1CN2CC[C@H](O)[C@@H]2[C@@H](O)[C@@H]1O [Celgosivir, celgosivir]						> 500 µM															EC50 (HCV; Hepatitis C virus): 3.8 µM; EC90 (HCV; Hepatitis C virus): 100 µM
OC[C@H]1NC[C@H](O)[C@@H](O)[C@@H]1O [DNJ, deoxynojirimycin, reference compound]																					CC50 at 72 h [7]: 20 to 100 µM; EC50 ([8]; West Nile virus, BHK, read-out: West Nile EC50): > 500 µM; EC50 ([6]; Dengue virus, BHK, read-out: Dengue EC50): 500 µM
CCCCN1C[C@H](O)[C@@H](O)[C@H](O)[C@H]1CO [NBDNJ, N-butyl-DNJ, reference compound]				20 to 100 µM																> 100 µM	
CCCCCCCCCN1C[C@H](O)[C@@H](O)[C@H](O)[C@H]1CO [NNDNJ, N-nonyl-DNJ, reference compound]	245 ± 134 µM	7.3 ± 0.4 µM	71 ± 7.1 µM	20 to 100 µM		280 µM	12 µM	85 µM	0.7 µM	> 100 µM	2.5 µM	> 500 µM	3 µM	70 µM			1 to 4 µM	3 to 10 µM	100 µM	4 µM	potency compared with DNJ or short alkyl side chain DNJ derivatives such as NBDNJ (BVDV (NADL strain) [9]): 100 times
OC[C@@H]1[C@@H](O)[C@H](O)[C@@H](O)CN1CCCCCC1(O)CCCCC1 [OSL95-II, N-pentyl-(1-hydroxycyclohexyl)-DNJ, reference compound]	> 500 µM	10.9 ± 2.7 µM	> 100 µM	> 100 µM	> 100 µM	> 500 µM	0.6 µM	8 µM	0.75 µM	68 µM	6 µM	125 µM	29 µM	> 100 µM	4 µM	8.7 µM	4 µM	8.7 µM	> 500 µM	4.5 µM	EC50 ([8]; read-out: WNV EC50): 4.5 µM
CC(C)[C@@H]1CC[C@@H](C)C[C@H]1OCCCCCCN1C[C@H](O)[C@@H](O)[C@H](O)[C@H]1CO [PBDNJ0801]	235 ± 21 µM	1.6 ± 1.2 µM	14.8 ± 3.9 µM	80 µM	70 µM										0.1 µM	0.2 µM	0.1 µM	0.2 µM		4.75 µM	EC50 ([8]; read-out: WNV EC50): 4.75 µM; EC90 ([8]; read-out: WNV EC90): 19 µM; EC90 ([8]; read-out: West Nile EC90): 19 µM
Cc1ccc(C)c(OCCCCCCN2C[C@H](O)[C@@H](O)[C@H](O)[C@H]2CO)c1 [PBDNJ0803]	485 ± 21 µM	3.7 ± 3.8 µM	29.2 ± 29 µM	85 µM	75 µM				0.5 µM	2 µM			2 µM	75 µM	0.1 µM	0.6 µM	0.1 µM	0.6 µM	300 µM	1.5 µM	antiviral activity against Junin virus infection [3]: most potent; EC50 ([8]; read-out: WNV EC50): 1.5 µM; EC90 ([8]; read-out: WNV EC90): 20 µM; EC90 ([8]; read-out: West Nile EC90): 20 µM
C[C@@H]1CCCCC1OCCCCCCN1C[C@H](O)[C@@H](O)[C@H](O)[C@H]1CO (stereo partly shown) [PBDNJ0804]	> 500 µM	3 ± 1.4 µM	13 ± 1.7 µM	65 µM	70 µM		0.5 µM	5 µM	0.45 µM	0.9 µM			1.5 µM	50 µM	0.075 µM	0.6 µM	0.08 µM	0.6 µM	500 µM	3.5 µM	antiviral activity against Junin virus infection [3]: most potent; EC50 ([8]; read-out: WNV EC50): 3.5 µM; EC90 ([8]; read-out: WNV EC90): 33 µM; EC90 ([8]; read-out: West Nile EC90): 33 µM
